The subject of one series is SH-SY5Y cells. The series can be described thus: Mitochondrial ATP levels in SHSY-5Y cells. The following applies: FLVCR1a-silenced vs scramble shRNA SH-SY5Y cells. Format: cell-based, human. An excerpt: Results were expressed as nmol NAD*/min/mg mitochondrial protein for complex I, nmol reduced cytochrome c/min/mg mitochondrial protein for complexes II-III, nmol oxidized cytochrome c/min/mg mitochondrial protein for complex IV. Data represent mean±SEM, n=3. For statistical analyses, an unpaired Student's t-test was used; *=p<0.05, **=p<0.01, *=p<0.001. […] Results are expressed as nmol/mg mitochondrial proteins. Data represent mean±SEM, n=3. For statistical analyses, an unpaired Student's t-test was used; *=p<0.05. […] Results are expressed as pmol CO2/h/mg protein. Data represent mean±SEM, n=3. For statistical analyses, an unpaired Student's t-test was used; **=p<0.01. […] Results were expressed as nmol NAD*/min/mg mitochondrial protein for complex I, nmol reduced cytochrome c/min/mg mitochondrial protein for complexes II-III, nmol oxidized cytochrome c/min/mg mitochondrial protein for complex IV. […] Results are expressed as nmol/mg mitochondrial proteins. […] Results are expressed as pmol CO2/h/mg protein. […] (H) TCA cycle enzymes activities are reported in boxes and expressed as mU/mg mitochondrial proteins. […] Results were expressed as nmol NAD^+/min/mg mitochondrial protein for complex I, nmol reduced cytochrome c/min/mg mitochondrial protein for complexes II-III, nmol oxidized cytochrome c/min/mg mitochondrial protein for complex IV. […] Results are expressed as nmol/mg mitochondrial proteins. […]

In the next series the test system is BTECs. The series can be described thus: In vitro tubulogenesis assay on matrigel. Format: cell-based, human. To be noted: FLVCR1a-silenced vs scramble shRNA BTECs, 18 hours. An excerpt:
(A) BTECs counting, as a readout of cell proliferation, at the indicated time points. […] Data represent mean±SEM, n=4. For statistical analyses, a two-way analysis of variance was used, followed by the Bonferroni correction for multiple group comparisons; ***p<0.001. (B) Quantification of BTECs migration rate in wound-healing assay. […] Data represent mean±SEM, n=32. For statistical analyses, a nonparametric unpaired Mann-Whitney test was used; ***p<0.001. (C) In vitro tubulogenesis assay on matrigel. […] The number of nodes counted within the neo-formed vascular networks is shown. Data represent mean±SEM; n=10. For statistical analyses, a nonparametric unpaired Mann-Whitney test was used; **p<0.01.
To assess in vitro formation of capillary-like structures, 3.5*10^4 BTECs were seeded in 24-well plates coated with BD Matrigel Matrix Growth Factor Reduced (BD Biosciences, Franklin Lakes, NJ USA, catalog n°356230). Cell organization on Matrigel was monitored using a Nikon Eclipse T-E microscope with a Nikon Plan 10×/0.10 NA objective. […] Images obtained 18 hours after the start of the experiment were analysed using Fiji open source software (Schindelin et al., 2012) (http://fiji.sc/ RRID:SCR_002285) in order to assess the number of nodes (intersections formed by at least three detectable cells) for each field. […]

As for “FLVCR1a shRNA: shRNA specifically down-regulating FLVCR1a without targeting FLVCR1b; pLKO.1 lentiviral clone TRCN0000059599, antisense SEQ ID No.: 2 (antisense TTGCTAATGATGCTGTACTGG; sense CCAGTACAGCATCATTAGCAA)”, the “mitochondrial ATP levels” value with SH-SY5Y cells is “increased mitochondrial ATP levels”. Moreover, the “formation of microvascular network on matrigel (number of nodes)” value with BTECs is “impaired ability to form a complex microvascular network on matrigel”.

These data come from US20240285670A1, “THERAPEUTIC TREATMENT OF TUMORS BY BLOCKING THE HEME SYNTHESIS-EXPORT AXIS” (Università degli Studi di Torino, priority 2021, published 2024).
